Laboratory results published in ChEMBL document CHEMBL3112428, “Biological evaluation of diazene derivatives as anti-tubercular compounds” (Eur J Med Chem, 2014).
In brackets after ≈: the same amount, converted by molar mass. Activity calls are given as the source filed them. No cut-off for these calls is given here.

Columns and labels:
[1] = test system: Mycobacterium tuberculosis; assay: Antituberculosis activity against Mycobacterium tuberculosis H37Rv ATCC 27294 assessed as inhibition of bacterial replication after 6 days by luminometry analysis; assay type: functional, organism-based; conditions: H37Rv ATCC 27294, 144 h
[2] = test system: Mycobacterium avium subsp. paratuberculosis; assay: Antituberculosis activity against Mycobacterium avium ssp. paratuberculosis ATCC 19698 expressing lux gene assessed as inhibition of bacterial replication after 6 days by luminometry analysis; assay type: functional, organism-based; conditions: ATCC 19698, 144 h
[3] = test system: Mycobacterium tuberculosis; assay: Antituberculosis activity against Mycobacterium tuberculosis H37Rv expressing lux gene assessed as inhibition of bacterial replication after 6 days by luminometry analysis; assay type: functional, organism-based; conditions: 144 h
[4] = Antituberculosis activity against Mycobacterium avium ssp. avium ATCC 15769 expressing lux gene assessed as inhibition of bacterial replication after 6 days by luminometry analysis; assay type: functional, Mycobacterium avium subsp. avium
Mycobacterium ulcerans = assay: Antituberculosis activity against Mycobacterium ulcerans 1615 expressing lux gene assessed as inhibition of bacterial replication after 6 days by luminometry analysis; assay type: functional; conditions: Mycobacterium ulcerans, 1615, 144 h
[5] = Genotoxicity in mouse J774A1 cells assessed as ratio of genomic DNA present in tail and head at 0.1 to 10 ug/ml after 24 hrs by comet assay; assay type: toxicity, cell-based; conditions: j774.a1, 24 h
[6] = test system: Mycobacterium tuberculosis; assay: Antituberculosis activity against Mycobacterium tuberculosis H37Rv expressing lux gene infected in mouse J774A1 cells assessed as inhibition of bacterial replication at 1.56 ug/ml after 4 days by luminometry analysis; assay type: functional; conditions: J774.A1, 96 h
[7] = Cytotoxicity against mouse J774A1 cells after 24 hrs by neutral red uptake assay; assay type: cell-based; conditions: J774.A1, 24 h
[8] = test system: Mycobacterium tuberculosis; assay: Antituberculosis activity against Mycobacterium tuberculosis H37Rv expressing lux gene infected in mouse J774A1 cells assessed as inhibition of bacterial replication at 3.13 ug/ml after 4 days by luminometry analysis; assay type: functional; conditions: J774.A1, 96 h
[9] = test system: Mycobacterium tuberculosis; assay: Antituberculosis activity against Mycobacterium tuberculosis H37Rv ATCC 27294 assessed as inhibition of bacterial replication at < 10 ug/ml after 6 days by luminometry analysis relative to control; assay type: functional
[10] = Selectivity index, ratio of IC50 for mouse J774A1 cells to IC50 for Mycobacterium tuberculosis H37Rv expressing pSMT1; assay type: toxicity, cell-based, J774.A1; conditions: read-out: Ratio IC50
[11] = test system: Mycobacterium tuberculosis; assay: Antituberculosis activity against Mycobacterium tuberculosis H37Rv expressing lux gene infected in mouse J774A1 cells assessed as inhibition of bacterial replication at 0.78 to 6.25 ug/ml after 4 days by luminometry analysis; assay type: functional, organism-based; conditions: J774.A1
[12] = test system: Mycobacterium tuberculosis; assay: Antituberculosis activity against Mycobacterium tuberculosis H37Rv expressing lux gene infected in mouse J774A1 cells assessed as inhibition of bacterial replication at 12.5 ug/ml after 4 days by luminometry analysis; assay type: functional; conditions: J774.A1, 96 h

SMILES: O=C(/N=N/c1nccc(C(F)(F)F)n1)Nc1ccccc1
- IC50 [1]: > 50 µg/mL
- IC90 [1]: > 50 µg/mL
- IC99 [1]: > 50 µg/mL

SMILES: O=C(/N=N/C(=O)Nc1ccc(F)cc1)NCc1ccncc1
- IC50 [1]: > 50 µg/mL
- IC90 [1]: > 50 µg/mL
- IC99 [1]: > 50 µg/mL

SMILES: O=C(/N=N/c1c(F)c(F)c(F)c(F)c1F)Nc1ccccc1
- IC50 [1]: 24.3 µg/mL (≈ 77.1 µM)
- IC90 [1]: 45.3 µg/mL (≈ 144 µM)
- IC99 [1]: > 50 µg/mL

SMILES: O=C(/N=N/C(=O)Nc1ccc(F)cc1)NCc1cccnc1
- IC50 [1]: > 50 µg/mL
- IC90 [1]: > 50 µg/mL
- IC99 [1]: > 50 µg/mL

SMILES: CCOC(=O)/N=N/C(=O)Nc1ccccc1
- IC50 [1]: 17.2 µg/mL (≈ 77.8 µM)
- IC90 [1]: 33.8 µg/mL (≈ 153 µM)
- IC99 [1]: > 50 µg/mL

SMILES: O=C(/N=N/c1ccc(C(F)(F)F)cc1)Nc1ccccc1
- IC50 [2]: 0.98 µg/mL (≈ 3.34 µM)
- IC50 [3]: 0.24 µg/mL (≈ 0.818 µM)
- IC50 [4]: 1.03 µg/mL (≈ 3.51 µM)
- IC50 (Mycobacterium ulcerans): 3.78 µg/mL (≈ 12.9 µM)
- Activity [5]: Non-toxic
- inhibition at 1.56 µg/mL [6]: 31.7%
- IC50 [7]: 7.41 µg/mL (≈ 25.3 µM)
- inhibition at 3.13 µg/mL [8]: 74.4%
- fold change (FC) [9]: 10
- IC50 [1]: 0.24 µg/mL (≈ 0.818 µM)
- IC90 [1]: 5.29 µg/mL (≈ 18 µM)
- IC99 [1]: 6.24 µg/mL
- selectivity ratio [10]: 30.2

SMILES: O=C(/N=N/C(=O)Nc1ccc(F)cc1F)NCc1ccncc1
- IC50 [1]: 33.3 µg/mL (≈ 104 µM)
- IC90 [1]: > 50 µg/mL
- IC99 [1]: > 50 µg/mL

SMILES: COc1ccc(/N=N/C(=O)Nc2ccccc2)cc1
- IC50 [1]: 12.1 µg/mL (≈ 47.3 µM)
- IC90 [1]: 38.4 µg/mL (≈ 150 µM)
- IC99 [1]: 42.2 µg/mL

SMILES: O=C(/N=N/c1ccccn1)Nc1ccccc1
- IC50 [1]: 27.1 µg/mL (≈ 120 µM)
- IC90 [1]: 46.9 µg/mL (≈ 207 µM)
- IC99 [1]: > 50 µg/mL

SMILES: O=C(/N=N/c1ccc([N+](=O)[O-])cc1)Nc1ccccc1
- IC50 [2]: 3.56 µg/mL (≈ 13.2 µM)
- IC50 [3]: 2.75 µg/mL (≈ 10.2 µM)
- IC50 [4]: 2.98 µg/mL (≈ 11 µM)
- IC50 (Mycobacterium ulcerans): 5.67 µg/mL (≈ 21 µM)
- Activity [5]: Non-toxic
- IC50 [7]: 14.4 µg/mL (≈ 53.2 µM)
- inhibition [11]: inactive
- fold change (FC) [9]: 10
- IC50 [1]: 2.75 µg/mL (≈ 10.2 µM)
- IC90 [1]: 6.23 µg/mL (≈ 23.1 µM)
- IC99 [1]: 16.5 µg/mL
- selectivity ratio [10]: 5.23

SMILES: COC(=O)/N=N/C(=O)Nc1ccc(OC)cc1
- IC50 [1]: 14.3 µg/mL (≈ 60.4 µM)
- IC90 [1]: 32.4 µg/mL (≈ 137 µM)
- IC99 [1]: > 50 µg/mL

SMILES: O=C(/N=N/c1ccc(Cl)cc1)Nc1ccccc1
- IC50 [1]: 15.6 µg/mL (≈ 59.9 µM)
- IC90 [1]: 41.4 µg/mL (≈ 159 µM)
- IC99 [1]: 49.3 µg/mL

SMILES: O=C(/N=N/C(=O)Nc1ccc(F)cc1F)NCc1cccnc1
- IC50 [1]: 38.6 µg/mL (≈ 121 µM)
- IC90 [1]: > 50 µg/mL
- IC99 [1]: > 50 µg/mL

SMILES: O=C(/N=N/c1ccc(F)cc1)Nc1ccccc1
- IC50 [1]: 45.2 µg/mL (≈ 186 µM)
- IC90 [1]: 49.2 µg/mL (≈ 202 µM)
- IC99 [1]: > 50 µg/mL

SMILES: NNC(=O)c1ccncc1 [ISONIAZID]
- IC50 [1]: 0.04 µg/mL (≈ 0.292 µM)
- IC90 [1]: 0.11 µg/mL (≈ 0.802 µM)
- IC99 [1]: 0.13 µg/mL

SMILES: CCOC(=O)/N=N/C(=O)Nc1ccc(C)cc1
- IC50 [2]: 4.89 µg/mL (≈ 20.8 µM)
- IC50 [3]: 2.72 µg/mL (≈ 11.6 µM)
- IC50 [4]: 3.14 µg/mL (≈ 13.3 µM)
- IC50 (Mycobacterium ulcerans): 7.25 µg/mL (≈ 30.8 µM)
- inhibition at 12.5 µg/mL [12]: 40.3%
- Activity [5]: Non-toxic
- IC50 [7]: 20.8 µg/mL (≈ 88.2 µM)
- fold change (FC) [9]: 10
- IC50 [1]: 2.72 µg/mL (≈ 11.6 µM)
- IC90 [1]: 4.07 µg/mL (≈ 17.3 µM)
- IC99 [1]: 7.97 µg/mL
- selectivity ratio [10]: 7.63
